According to patent publication US10385022B2, “3-amino-pyridines as GPBAR1 agonists” (HOFFMANN-LA ROCHE INC., priority 2011, dated 2019):

The molecules below were run against human GPBAR1 receptor (Homo sapiens (Human), UniProt Q8TDU6) (assay: functional cAMP assay in CHO-dhfr(minus) cells expressing human GPBAR1 receptors). Conditions: CHO-dhfr(minus) cells expressing human GPBAR1, 30 min at 30° C.
Assay type: cell-based
In short: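 Functional cAMP responses in a human GPBAR1-transfected CHO-dhfr- clone, picked using lithocholic acid as agonist, gave the EC50 values. Parallel testing in untransfected CHO cells served as a specificity control.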

Sequence of human GPBAR1 receptor (Q8TDU6 whole entry): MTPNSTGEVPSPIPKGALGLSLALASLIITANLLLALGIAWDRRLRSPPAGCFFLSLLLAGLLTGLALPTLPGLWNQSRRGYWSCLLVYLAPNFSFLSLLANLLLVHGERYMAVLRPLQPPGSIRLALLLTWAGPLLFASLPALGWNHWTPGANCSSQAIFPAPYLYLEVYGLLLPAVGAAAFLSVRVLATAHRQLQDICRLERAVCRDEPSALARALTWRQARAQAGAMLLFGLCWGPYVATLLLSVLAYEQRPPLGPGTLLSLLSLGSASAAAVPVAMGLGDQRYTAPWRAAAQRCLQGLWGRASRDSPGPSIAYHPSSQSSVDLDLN

SMILES | EC50 [µM]
COCCN(C)c1cc(-c2ccccc2C)c(N(C)C(=O)c2cc(C(F)(F)F)cc(C(F)(F)F)c2)cn1 [Example 18, N-{6-[(2-Methoxy-ethyl)-methyl-amino]-4-o-tolyl-pyridin-3-yl}-N-methyl-3,5-bis-trifluoro methyl-benzamide] | 0.85
COc1cc(F)ccc1-c1cc(C)ncc1N(C)C(=O)c1cc(SCCCCC(=O)NCC(=O)O)cc(C(F)(F)F)c1 [Example 315, [5-(3-{[4-(4-Fluoro-2-methoxy-phenyl)-6-methyl-pyridin-3-yl]-methyl-carbamoyl}-5-trifluoromethyl-phenylsulfanyl)-pentanoylamino]-acetic acid] | 0.451
COc1cc(F)ccc1-c1ccncc1N(C)C(=O)c1cc(Cl)cc(S(C)(=O)=O)c1 [Example 257, 3-Chloro-N-[4-(4-fluoro-2-methoxy-phenyl)-pyridin-3-yl]-5-methanesulfonyl-N-methyl-benzamide] | 0.079
COc1cc(C(=O)N(C)c2cnccc2-c2ccc(F)cc2OC)cc(C(F)(F)F)n1 [Example 206, N-[4-(4-Fluoro-2-methoxy-phenyl)-pyridin-3-yl]-2-methoxy-N-methyl-6-trifluoromethyl-isonicotinamide] | 0.023
Cc1ccccc1-c1ccncc1N(C)C(=O)c1cc(C(F)(F)F)nc(S(C)(=O)=O)c1 [Example 194, 2-Methanesulfonyl-N-methyl-N-(4-o-tolyl-pyridin-3-yl)-6-trifluoromethyl-isonicotinamide] | 0.258
COc1cc(F)ccc1-c1ccncc1N(C)C(=O)c1cc(SCCN2CCC2)cc(C(F)(F)F)c1 [Example 259, 3-(2-Azetidin-1-yl-ethylsulfanyl)-N-[4-(4-fluoro-2-methoxy-phenyl)-pyridin-3-yl]-N-methyl-5-trifluoromethyl-benzamide] | 0.134
CS(=O)(=O)CCN(C(=O)c1cc(C(F)(F)F)cc(S(C)(=O)=O)c1)c1cnccc1-c1ccccc1OC(F)(F)F [Example 308, 3-Methanesulfonyl-N-(2-methanesulfonyl-ethyl)-N-[4-(2-trifluoromethoxy-phenyl)-pyridin-3-yl]-5-trifluoromethyl-benzamide] | 0.936
CN(C(=O)c1cc(C(F)(F)F)cc(C(F)(F)F)c1)c1cnccc1-c1ccccc1CCO [Example 93, N-{4-[2-(2-Hydroxy-ethyl)-phenyl]-pyridin-3-yl}-N-methyl-3,5-bis-trifluoromethyl-benzamide] | 2.26
COc1cc(F)c(F)cc1-c1ccncc1N(CC(F)(F)F)C(=O)c1cc(C(F)(F)F)cc(S(C)(=O)=O)c1 [Example 139, N-[4-(4,5-Difluoro-2-methoxy-phenyl)-pyridin-3-yl]-3-methanesulfonyl-N-(2,2,2-trifluoro-ethyl)-5-trifluoromethyl-benzamide] | 0.606
O=C(c1cc(C(F)(F)F)cc(C(F)(F)F)c1)N(CC(F)F)c1cnccc1-c1ccccc1Cl [Example 116, N-[4-(2-Chloro-phenyl)-pyridin-3-yl]-N-(2,2-difluoro-ethyl)-3,5-bis-trifluoromethyl-benzamide] | 0.088
Cc1ccccc1-c1ccncc1N(C)C(=O)c1ccc(C(F)(F)F)c(Cl)c1 [Example 97, 3-Chloro-N-methyl-N-(4-o-tolyl-pyridin-3-yl)-4-trifluoromethyl-benzamide] | 0.721
COc1cc(F)ccc1-c1ccncc1N(C)C(=O)c1cc(SCCNS(C)(=O)=O)cc(C(F)(F)F)c1 [Example 262, N-[4-(4-Fluoro-2-methoxy-phenyl)-pyridin-3-yl]-3-(2-methanesulfonylamino-ethylsulfanyl)-N-methyl-5-trifluoromethyl-benzamide] | 0.231
CN(C(=O)c1cc(C(C)(C)O)cc(C(F)(F)F)c1)c1cnccc1-c1ccccc1Cl [Example 77, N-[4-(2-Chloro-phenyl)-pyridin-3-yl]-3-(1-hydroxy-1-methyl-ethyl)-N-methyl-5-trifluoromethyl-benzamide] | 0.715
COC(=O)CN(C(=O)c1cc(C(F)(F)F)cc(S(C)(=O)=O)c1)c1cnccc1-c1cc(F)c(F)cc1OC [Example 172, [[4-(4,5-Difluoro-2-methoxy-phenyl)-pyridin-3-yl]-(3-methanesulfonyl-5-trifluoromethyl-benzoyl)-amino]-acetic acid methyl ester] | 0.632
COc1cc(F)ccc1-c1ccncc1N(C)C(=O)c1cc(C(F)(F)F)nc(S(C)(=O)=O)c1 [Example 221, N-[4-(4-Fluoro-2-methoxy-phenyl)-pyridin-3-yl]-2-methanesulfonyl-N-methyl-6-trifluoro-methyl-isonicotinamide] | 0.059

More lines, in order of falling EC50, values ahead:

EC50 [µM] | SMILES
2.2 | COc1cc(F)ccc1-c1ccncc1N(Cc1ncc(C)o1)C(=O)c1cc(C(F)(F)F)cc(S(C)(=O)=O)c1 [Example 283, N-[4-(4-Fluoro-2-methoxy-phenyl)-pyridin-3-yl]-3-methanesulfonyl-N-(5-methyl-oxazol-2-ylmethyl)-5-trifluoromethyl-benzamide]
2.05 | CN(C(=O)c1cc(C(F)(F)F)cc(C(F)(F)F)c1)c1cnccc1-c1ccc(F)cc1OCc1ccccc1 [Example 43, N-[4-(2-Benzyloxy-4-fluoro-phenyl)-pyridin-3-yl]-N-methyl-3,5-bis-trifluoromethyl-benzamide]
1.96 | CN(C(=O)c1cc(CO)cc(C(F)(F)F)c1)c1cnccc1-c1ccccc1Cl [Example 76, N-[4-(2-Chloro-phenyl)-pyridin-3-yl]-3-hydroxymethyl-N-methyl-5-trifluoromethyl-benzamide]
1.54 | CN(C(=O)c1cc(C(F)(F)F)cc(C(F)(F)F)c1)c1cnccc1-c1cccc(Cl)n1 [Example 71, N-(6-Chloro-[2,4′]bipyridinyl-3′-yl)-N-methyl-3,5-bis-trifluoromethyl-benzamide]
1.23 | COc1cc(F)ccc1-c1ccncc1N(C)C(=O)c1cc(SC2CNC2)cc(C(F)(F)F)c1 [Example 275, 3-(Azetidin-3-ylsulfanyl)-N-[4-(4-fluoro-2-methoxy-phenyl)-pyridin-3-yl]-N-methyl-5-trifluoromethyl-benzamide]
0.926 | COc1cc(F)c(Cl)cc1-c1cc(C)ncc1N(C)C(=O)c1cc(C(F)(F)F)cc(S(=O)(=O)CCCCC(=O)O)c1 [Example 316, 5-(3-{[4-(5-Chloro-4-fluoro-2-methoxy-phenyl)-6-methyl-pyridin-3-yl]-methyl-carbamoyl}-5-trifluoromethyl-benzenesulfonyl)-pentanoic acid]
0.61 | Cc1cc(C(=O)N(C)c2cnccc2-c2ccccc2C)cc(Cl)n1 [Example 119, 2-Chloro-6,N-dimethyl-N-(4-o-tolyl-pyridin-3-yl)-isonicotinamide]
0.435 | CN(C(=O)c1cc(C(F)(F)F)cc(C(F)(F)F)c1)c1cnccc1-c1cc(F)cnc1Cl [Example 55, N-(2-Chloro-5-fluoro-[3,4′]bipyridinyl-3′-yl)-N-methyl-3,5-bis-trifluoromethyl-benzamide]
0.406 | Cc1ccccc1-c1ccncc1N(C)C(=O)c1ccc(F)c(Cl)c1 [Example 11, 3-Chloro-4-fluoro-N-methyl-N-(4-o-tolyl-pyridin-3-yl)-benzamide]
0.349 | Cc1ncccc1-c1ccncc1N(C)C(=O)c1cc(C(F)(F)F)cc(C(F)(F)F)c1 [Example 33, N-Methyl-N-(2-methyl-[3,4′]bipyridinyl-3′-yl)-3,5-bis-trifluoromethyl-benzamide]
0.349 | Cc1ccccc1-c1cc(Cl)ncc1N(C)C(=O)c1cc(C(F)(F)F)cc(C(F)(F)F)c1 [Example 12, N-(6-Chloro-4-o-tolyl-pyridin-3-yl)-N-methyl-3,5-bis-trifluoromethyl-benzamide]
0.299 | CN(C(=O)c1ccc(Br)c(C(F)(F)F)c1)c1cnccc1-c1ccccc1Cl [Example 80, 4-Bromo-N-[4-(2-chloro-phenyl)-pyridin-3-yl]-N-methyl-3-trifluoromethyl-benzamide]
0.121 | COc1cc(F)ccc1-c1ccncc1N(C)C(=O)c1cc(C(F)(F)F)cc(S(=O)(=O)CCN2CCC2)c1 [Example 265, 3-(2-Azetidin-1-yl-ethanesulfonyl)-N-[4-(4-fluoro-2-methoxy-phenyl)-pyridin-3-yl]-N-methyl-5-trifluoromethyl-benzamide]
0.088 | Cc1ccccc1-c1ccncc1N(CC(F)F)C(=O)c1cc(C(F)(F)F)nc(C(F)(F)F)c1 [Example 157, N-(2,2-Difluoro-ethyl)-N-(4-o-tolyl-pyridin-3-yl)-2,6-bis-trifluoromethyl-isonicotinamide]
0.073 | COc1cc(F)ccc1-c1ccnc(C)c1N(C)C(=O)c1cc(C(F)(F)F)cc(S(C)(=O)=O)c1 [Example 230, N-[4-(4-Fluoro-2-methoxy-phenyl)-2-methyl-pyridin-3-yl]-3-methanesulfonyl-N-methyl-5-trifluoromethyl-benzamide]
0.052 | NC(=O)CN(C(=O)c1cc(C(F)(F)F)cc(C(F)(F)F)c1)c1cnccc1-c1ccccc1Cl [Example 117, N-Carbamoylmethyl-N-[4-(2-chloro-phenyl)-pyridin-3-yl]-3,5-bis-trifluoromethyl-benzamide]
0.046 | COC(=O)CCS(=O)(=O)c1cc(C(=O)N(C)c2cnccc2-c2ccc(F)cc2OC)cc(C(F)(F)F)c1 [Example 224, 3-(3-{[4-(4-Fluoro-2-methoxy-phenyl)-pyridin-3-yl]-methyl-carbamoyl}-5-trifluoromethyl-benzenesulfonyl)-propionic acid methyl ester]
0.039 | COc1cc(F)ccc1-c1ccncc1N(CC(F)(F)F)C(=O)c1cc(C(F)(F)F)cc(S(=O)(=O)N(C)C)c1 [Example 133, 3-Dimethylsulfamoyl-N-[4-(4-fluoro-2-methoxy-phenyl)-pyridin-3-yl]-N-(2,2,2-trifluoro-ethyl)-5-trifluoromethyl-benzamide]
0.026 | COc1cc(F)ccc1-c1ccncc1N(C)C(=O)c1cc(Cl)nc(C(F)(F)F)c1 [Example 169, 2-Chloro-N-[4-(4-fluoro-2-methoxy-phenyl)-pyridin-3-yl]-N-methyl-6-trifluoromethyl-isonicotinamide]
